# Measured values: patent US20240173316A1, “Methods and Compositions for Treating Cancer” (Ohio Northern University, priority 2022, published 2024)
# What was measured:
# [1] = target: RGS2-Galpha-q interaction (Homo sapiens (Human), UniProt P41220); assay: NanoBit RGS/Gα cell-based protein-protein interaction assay, RGS2; details: for Selectivity: RGS4 IC50/RGS2 IC50; for IC50: inhibition of RGS2-Galpha-q interaction, read-out: RGS2 IC50 μM (95% Cl)
# Procedure: (§1) The NanoBit cell-based assay was performed as previously described. The NanoBit substrate (NanoGlo Live Cell Reagent) was prepared as a 5× stock, per the manufacture's protocol, and added to the wells at 10 μL per well. Post substrate addition, a baseline signal was established for 30 minutes using a BioTek Synergy 2 plate reader in luminescent mode. Post baseline read 10 μL of vehicle (Hank's Balanced Salt solution+20 mM HEPES) or AlF4 (stock solution: 40 mM NaF, 500 μM AlCl3) was added and luminescence was measured for an additional 30 minutes. Lastly, 4× compound or vehicle (DMSO) was added to the appropriate wells, and the plate was read for an additional hour. Data presented represents the mean of N=3 independent experiments±S.E.M. All data analysis was completed in GraphPad Prism 7 and 8.
# (§2) All selected compounds were purchased and tested for their ability to inhibit RGS2-Galpha-q interaction in NanoBit assays. The same assay was also used to test the compounds' ability to inhibit RGS4-Galpha-q interaction as a measure of selectivity. RGS4 was not part of the docking calculations performed here because no structure is available for the human RGS4. It was used in the assays, nonetheless, to test for the validity of our docking approach to selectivity and binding.
# [2] = target: RGS4-Galpha-q interaction (Homo sapiens (Human), UniProt P49798); assay: NanoBit RGS/Gα cell-based protein-protein interaction assay, RGS4; details: for IC50: inhibition of RGS4-Galpha-q interaction, read-out: RGS4 IC50 μM (95% Cl)
# Procedure: as §1, §2
# NCI 60 cell panel = assay: NCI 60 Cell One-Dose Screen; type: cell-based, human; details: single high dose 10^−5 M; leukemia, NSCLC, colon, CNS, melanoma, ovarian, renal, prostate, breast
# Procedure: Another study was conducted to measure the cytotoxic effect of the RGS2 inhibitor. The growth reduction feature of direct RGS2 inhibitors was examined within the National Cancer Institute single high dose panel established that the drug was cytotoxic across a variety of cancers. Spanning across 60 standard cancer cell lines, this cytotoxicity assessment measured anti-proliferative activity within the following cancer types, with numerous subtypes below them: leukemia, non-small cell lung cancer, colon cancer, central nervous system cancer, melanoma, ovarian cancer, renal cancer, prostate cancer, and breast cancer.
# The NCI 60 Cell One-Dose Screen is a standardized test carried out by National Cancer Institute, where a compound is tested at an initial single high dose (10^−5 M) across the full NCI 60 cell panel. Once a compound is assessed to be effective against a standard threshold number of cell lines, the compound is progresses to a full five-dose screen to determine anti-proliferative capability. This assay is ran relative to parallel studies with a no-drug control and at time zero number of cells.
# [3] = test system: LNCaP prostate cancer cell line; assay: Wound healing (scratch) migration assay; type: cell-based, human; details: 1 μM, more potently at 2 μM and higher
# Procedure: It has previously been shown that RGS2 gene expression in the human prostate cancer cells LnCap were downgraded by infection with small hairpin RNA (shRNA) targeting the RGS2 gene (henceforth “shRGS2”). These shRGS2 LnCap cells expressed lower levels of RGS2 protein compared to the non-infected control, leading to a reduction in RGS2 activity.
# Metastatic evaluation was carried out by a wound healing assay. A wound healing assay measures cell migration of individual cells, cell sheets, and clusters from one location to another. A single mechanical laceration was made on a 12-well plate growing a cancer cells monolayer that was grown overnight, and the cells were allowed to regrow across the inclusion over the span of 48 hours. Results were recorded between the knockdown shRGS2 and control in values of the closure % as the wound healing took place at 24 hour and 48 hour time points (FIG. 3). Results for the RGS2 inhibitor treated cells were recorded as pictures taken at 5 separate time points every 24 hours (FIG. 4A-H).
# RGS4-Galpha-q interaction, sequence (P49798 whole entry): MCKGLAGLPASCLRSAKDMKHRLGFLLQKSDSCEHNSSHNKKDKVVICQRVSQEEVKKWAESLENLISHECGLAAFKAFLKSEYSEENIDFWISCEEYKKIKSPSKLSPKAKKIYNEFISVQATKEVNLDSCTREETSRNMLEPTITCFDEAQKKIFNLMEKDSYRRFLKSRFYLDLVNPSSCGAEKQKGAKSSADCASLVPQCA
# RGS2-Galpha-q interaction, sequence (P41220 whole entry): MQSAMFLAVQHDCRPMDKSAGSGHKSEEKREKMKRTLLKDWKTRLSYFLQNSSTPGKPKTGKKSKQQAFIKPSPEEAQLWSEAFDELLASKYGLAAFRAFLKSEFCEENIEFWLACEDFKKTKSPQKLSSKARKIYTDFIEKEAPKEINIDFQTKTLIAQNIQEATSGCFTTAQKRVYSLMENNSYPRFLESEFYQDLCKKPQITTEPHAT
smiles,measurement,setting,value
Nc1nc2c(nc(NCCCN3CCOCC3)n2[C@H]2O[C@@H](CO)[C@H](O)[C@@H]2O)c(=O)[nH]1 [AJ-1],Selectivity,[1],289
same,IC50,[1],0.04 µM
same,IC50,[2],10.1 µM
same,cytotoxic effect across cancer types,NCI 60 cell panel,"cytotoxic effect against all aforementioned cancers except prostate, ovarian, and colon cancer"
COc1ccc(Cn2nnnc2[C@H](c2cc3cc(C)ccc3[nH]c2=O)N2CCN(C3CCCCC3)CC2)cc1 [AJ-2],Selectivity,[1],13
same,IC50,[1],1.45 µM
same,IC50,[2],18.8 µM
Cc1onc(C(=O)NNC(=O)Nc2ccc(Cl)cc2)c1C(=O)N1CCN(C(c2ccccc2)c2ccccc2)CC1 [AJ-3],Selectivity,[1],4.25
same,IC50,[1],4.94 µM
same,IC50,[2],21 µM
same,migration of LNCaP cells,[3],inhibited the migration ability
same,cytotoxic effect across cancer types,NCI 60 cell panel,strong cytotoxic effect against the full list of cancers
Cc1ccc([C@@H](C(=O)NC2CCCCC2)N(Cc2ccccc2Cl)C(=O)c2ccc(CN3CCOCC3)o2)o1 [AJ-4],Selectivity,[1],1.81
same,IC50,[1],13.8 µM
same,IC50,[2],25 µM
same,cytotoxic effect across cancer types,NCI 60 cell panel,strong cytotoxic effect against the full list of cancers
Cc1cc(C)c2[nH]c(=O)c([C@@H](c3nnnn3Cc3ccc4c(c3)OCO4)N3CCN(C)CC3)cc2c1 [AJ-5],Selectivity,[1],1.53
same,IC50,[1],15 µM
same,IC50,[2],23 µM
Cc1cccc2cc([C@H](c3nnnn3Cc3ccc4c(c3)OCO4)N3CCN(C)CC3)c(=O)[nH]c12 [AJ-6],Selectivity,[1],0.48
same,IC50,[1],19.8 µM
same,IC50,[2],~9.6 µM
Cn1c(=O)c2c(nc(NCc3ccccc3)n2C[C@H](O)CN2CCN(Cc3ccccc3)CC2)n(C)c1=O [AJ-7],Selectivity,[1],0.51
same,IC50,[1],27.6 µM
same,IC50,[2],14.1 µM
CCc1ccc2[nH]c(=O)c(C(c3nnnn3Cc3ccc(F)cc3)N3CCN(C4CCCCC4)CC3)cc2c1 (stereo not drawn) [AJ-8],Selectivity,[1],0.29
same,IC50,[1],33.1 µM
same,IC50,[2],9.6 µM
same,cytotoxic effect across cancer types,NCI 60 cell panel,strong cytotoxic effect against the full list of cancers
Cc1cc(C)c2[nH]c(=O)c(C(c3nnnn3Cc3ccc(F)cc3)N3CCN(C4CCCCC4)CC3)cc2c1 (stereo not drawn) [AJ-9],Selectivity,[1],2.72
same,IC50,[1],33.5 µM
same,IC50,[2],91 µM
same,cytotoxic effect across cancer types,NCI 60 cell panel,strong cytotoxic effect against the full list of cancers
COCc1ccc2[nH]c(=O)c(C(c3nnnn3C[C@H]3CCCO3)N3CCN(Cc4ccccc4)CC3)cc2c1 (stereo partly drawn) [AJ-10],IC50,[1],78 µM
same,activity towards RGS4,[2]; result in words,no apparent activity towards RGS4
same,cytotoxic effect across cancer types,NCI 60 cell panel,strong cytotoxic effect against the full list of cancers
